Laboratory results taken from patent US7847063B2 (Sanwa Kagaku Kenkyusho Co., Ltd., priority 2003, dated 2010).
Ends that are not written are not given here.

Key:
[1] = system: Langerhans islets; test: Insulin secretion-promoting activity in isolated Langerhans islets; format: cell-based, ICR mouse; settings: 16.7 mM glucose, 37° C. 30 min, FIG. 13
Excerpt: Langerhans islets were extracted from ICR mouse pancreas with collagenase, 2 to 3 Langerhans islets were placed per well of 24-well plates, and cultured overnight.

[2] = molecular target: T1, human GLP-1 receptor (Homo sapiens, UniProt P43220); test: Cyclic AMP production activity in CHO-K1 cells expressing human GLP-1 receptors; format: cell-based; settings: compared with native GLP-1; 37° C. 30 min; FIG. 7
T1 construct: expressed in transfected cells; host or cells: Chinese hamster ovary CHO-K1 cells
T1 sequence (P43220 24-463): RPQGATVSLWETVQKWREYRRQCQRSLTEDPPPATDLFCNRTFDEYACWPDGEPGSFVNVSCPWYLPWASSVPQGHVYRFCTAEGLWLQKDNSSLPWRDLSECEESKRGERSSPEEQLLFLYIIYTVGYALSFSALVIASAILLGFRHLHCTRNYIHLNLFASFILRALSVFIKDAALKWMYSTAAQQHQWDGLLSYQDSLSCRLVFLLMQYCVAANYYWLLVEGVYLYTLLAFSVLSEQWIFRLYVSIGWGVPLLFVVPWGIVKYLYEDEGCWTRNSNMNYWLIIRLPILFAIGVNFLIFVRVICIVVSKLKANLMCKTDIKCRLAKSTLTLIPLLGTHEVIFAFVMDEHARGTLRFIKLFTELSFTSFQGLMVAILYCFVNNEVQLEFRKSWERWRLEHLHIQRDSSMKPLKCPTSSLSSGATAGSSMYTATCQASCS
Description: 10 μl of 5N hydrochloric acid was added to the buffer to stop the incubation.

[3] = molecular target: T2, trypsin (Sus scrofa, UniProt P00761); settings: pH 7.8
T2 sequence (P00761 9-231): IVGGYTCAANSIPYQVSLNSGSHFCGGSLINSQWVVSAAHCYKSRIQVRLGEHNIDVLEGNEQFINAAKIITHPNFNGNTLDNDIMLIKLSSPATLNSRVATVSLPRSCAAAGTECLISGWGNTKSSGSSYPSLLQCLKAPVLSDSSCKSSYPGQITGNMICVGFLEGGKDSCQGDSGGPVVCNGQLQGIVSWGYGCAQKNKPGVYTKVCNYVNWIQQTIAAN
Description: 5 μl of 500 μg/ml trypsin solution (Promega: Cat. No. V5113) was added to 100 μl of this solution, and reacted at 37° C. for 1 hour. The reaction was stopped by adding 1200 μl of 71.5% ethanol (final 65%). The supernatant was collected by centrifugation at 15,000 rpm at 4° C. for 5 min, and evaporation was carried out. The dried solids were dissolved in distilled water and used for measuring activity.
The reaction was stopped by adding 1200 μl of 71.5% ethanol (final 65%). The supernatant was collected by centrifugation of 15,000 rpm at 4° C. for 5 min and evaporation was carried out. The dried solids were dissolved in distilled water and used for measuring the activity.

[4] = Hypoglycemic effect in oral glucose tolerance test (OGTT) by subcutaneous administration; format: in vivo; settings: mice fasted overnight, 1 g/kg glucose orally, peptide 5, 20 μg/kg dorsal subcutaneously; FIG. 14
Description: Physiological saline was administered to the control group. Before loading glucose and 20, 60, 120 min after loading, blood was collected chronologically from subocular venous plexus, to measure blood glucose level. […] Moreover, the action continued until 120 min after the administration (FIG. 15).

[5] = molecular target: DPP-IV (Sus scrofa, UniProt P22411)
Chain of DPP-IV (P22411 whole entry): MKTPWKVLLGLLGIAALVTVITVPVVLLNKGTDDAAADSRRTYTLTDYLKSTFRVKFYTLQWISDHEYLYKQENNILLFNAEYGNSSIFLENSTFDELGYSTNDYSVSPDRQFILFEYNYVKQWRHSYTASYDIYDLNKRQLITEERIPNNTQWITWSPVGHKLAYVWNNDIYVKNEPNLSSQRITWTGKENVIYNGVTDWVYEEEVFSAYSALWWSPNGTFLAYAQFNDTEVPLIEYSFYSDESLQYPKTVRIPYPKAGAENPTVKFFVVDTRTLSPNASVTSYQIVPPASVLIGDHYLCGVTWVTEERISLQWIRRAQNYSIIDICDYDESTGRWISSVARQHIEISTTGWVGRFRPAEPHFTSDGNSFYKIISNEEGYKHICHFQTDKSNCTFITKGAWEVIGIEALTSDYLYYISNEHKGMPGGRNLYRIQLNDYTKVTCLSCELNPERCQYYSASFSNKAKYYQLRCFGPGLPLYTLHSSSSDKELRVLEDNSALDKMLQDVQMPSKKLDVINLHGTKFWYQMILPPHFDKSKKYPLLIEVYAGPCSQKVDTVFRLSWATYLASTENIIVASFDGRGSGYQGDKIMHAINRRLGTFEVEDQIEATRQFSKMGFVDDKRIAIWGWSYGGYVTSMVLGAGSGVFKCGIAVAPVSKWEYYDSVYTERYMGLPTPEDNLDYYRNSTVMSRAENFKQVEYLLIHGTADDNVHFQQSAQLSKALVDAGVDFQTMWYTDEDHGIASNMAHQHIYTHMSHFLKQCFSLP

[6] = molecular target: T2, trypsin
Description: To this diluent, 6 μl of 83 μg/ml trypsin solution (Promega: Cat. No. V5113) was added. The resultant was reacted at 37° C. for 1, 2, 4, 6 or 20 hours, and then the reaction was stopped by adding 1200 μl of 71.5% ethanol (final 65%). The supernatant was collected by centrifugation at 15,000 rpm at 4° C. for 5 min and evaporation was carried out. The dried solids were dissolved in distilled water and the activity was measured.

Substance | insulin secretion-promoting activity [1] | cyclic AMP production activity [2] | activity before and after trypsin treatment (trypsin resistance) [3] | insulin secretion-promoting activity at high concentration ([1]; high concentration) | peak value of blood glucose increase / hypoglycemic action [4] | variation in activity by trypsin treatment (trypsin resistance) [3] | DPP-IV resistance [5] | cyclic AMP production activity versus trypsin treatment time [6]
GLP-1 (7-36 amide) (HAEGTFTSDVSSYLEGQAAKEFIAWLVKGR-NH2) [native GLP-1, made by solid phase synthesis, reference compound] | Amount-dependent insulin secretion-promoting activity | – | – | – | – | – | – | –
HAEGTFTSDVSSYLEGQAAQEFIAWLVNGR-NH2 [[Gln^26, Asn^34]-GLP-1 (7-36 amide)] | – | same level of cyclic AMP production activity as native GLP-1 | no difference of activity before and after trypsin treatment | – | – | – | – | –
HSEGTFTSDVSSYLEGQAAQEFIAWLVNGR-OH [[Ser^8, Gln^26, Asn^34]-GLP-1 (7-36), [Ser^8, Gln^26, Asn^34]-GLP-1 (7-36)] | Amount-dependent insulin secretion-promoting activity | – | – | strong insulin secretion-promoting activity | strong action | no variation in activity by trypsin treatment | obvious DPP-IV resistance | –
[Ser^8, Gln^26, Asp^34]-GLP-1 (7-36) | Amount-dependent insulin secretion-promoting activity | – | – | – | – | no variation in activity by trypsin treatment | obvious DPP-IV resistance | the activity was maintained regardless of the trypsin treatment time
